Test results as given in US10131652B2, “Pyrimidinyloxy benzene derivatives as herbicides” (E. I. DU PONT DE NEMOURS AND COMPANY, priority 2014, dated 2018).
Read-outs that look alike come from different tables or passages of the source.

Tests used:
Assay in all cases: Test D pre-/postemergence plant response
Assay type in all cases: in vivo
[1] = system: galium (catchweed bedstraw, Galium aparine); conditions: Galium, pre-emergence, Preemergence
In short: (§1)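 Preemergence: seeds in loam/sand blend treated with test chemicals in non-phytotoxic solvent with surfactant; postemergence: plants at 2–18 cm (1- to 4-leaf stage) in peat-based medium sprayed likewise. Greenhouse 13 to 15 days, then visual rating vs controls, 0 (no effect) to 100 (complete control).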

[2] = system: giant foxtail (Setaria faberii); conditions: Setaria faberi; for pest or weed control at 16 g/ha: 16 g ai/ha; for pest or weed control at 31 g/ha: 31 g ai/ha; for pest or weed control at 62 g/ha: 62 g ai/ha; for pest or weed control at 125 g/ha: 125 g ai/ha
In short: as §1

[3] = system: lambsquarters (Chenopodium album); conditions: Chenopodium album; for pest or weed control at 16 g/ha: 16 g ai/ha; for pest or weed control at 31 g/ha: 31 g ai/ha; for pest or weed control at 62 g/ha: 62 g ai/ha; for pest or weed control at 125 g/ha: 125 g ai/ha
In short: as §1

[4] = system: morningglory (Ipomoea coccinea); conditions: Ipomoea; for pest or weed control at 16 g/ha: 16 g ai/ha; for pest or weed control at 31 g/ha: 31 g ai/ha; for pest or weed control at 62 g/ha: 62 g ai/ha; for pest or weed control at 125 g/ha: 125 g ai/ha
In short: as §1

[5] = system: pigweed (Amaranthus retroflexus); conditions: Amaranthus retroflexus; for pest or weed control at 16 g/ha: 16 g ai/ha; for pest or weed control at 31 g/ha: 31 g ai/ha; for pest or weed control at 62 g/ha: 62 g ai/ha; for pest or weed control at 125 g/ha: 125 g ai/ha
In short: as §1

[6] = system: ragweed (common ragweed, Ambrosia elatior); conditions: Ambrosia artemisiifolia; for pest or weed control at 16 g/ha: 16 g ai/ha; for pest or weed control at 31 g/ha: 31 g ai/ha; for pest or weed control at 62 g/ha: 62 g ai/ha; for pest or weed control at 125 g/ha: 125 g ai/ha
In short: as §1

[7] = system: waterhemp (common waterhemp, Amaranthus rudis); conditions: Amaranthus tuberculatus; for pest or weed control at 16 g/ha: 16 g ai/ha; for pest or weed control at 31 g/ha: 31 g ai/ha; for pest or weed control at 62 g/ha: 62 g ai/ha; for pest or weed control at 125 g/ha: 125 g ai/ha
In short: as §1

[8] = post-emergence, Postemergence, scale 0 to 100 (0 no effect, 100 complete control), read-out: Foxtail, Giant plant response rating
[9] = post-emergence, Postemergence, scale 0 to 100, 0 no effect, 100 complete control, read-out: Plant response rating, Foxtail, Giant
[10] = pre-emergence, Preemergence, scale 0 to 100 (0 no effect, 100 complete control), read-out: Plant response rating, Foxtail, Giant
[11] = post-emergence, Postemergence, scale 0 to 100 (0 no effect, 100 complete control), read-out: Lambsquarters plant response rating
[12] = post-emergence, Postemergence, scale 0 to 100, 0 no effect, 100 complete control, read-out: Plant response rating, Lambsquarters
[13] = pre-emergence, Preemergence, scale 0 to 100 (0 no effect, 100 complete control), read-out: Plant response rating, Lambsquarters
[14] = post-emergence, Postemergence, scale 0 to 100 (0 no effect, 100 complete control), read-out: Morningglory plant response rating
[15] = post-emergence, Postemergence, scale 0 to 100, 0 no effect, 100 complete control, read-out: Plant response rating, Morningglory
[16] = pre-emergence, Preemergence, scale 0 to 100 (0 no effect, 100 complete control), read-out: Plant response rating, Morningglory
[17] = post-emergence, Postemergence, scale 0 to 100 (0 no effect, 100 complete control), read-out: Pigweed plant response rating
[18] = post-emergence, Postemergence, scale 0 to 100, 0 no effect, 100 complete control, read-out: Plant response rating, Pigweed
[19] = pre-emergence, Preemergence, scale 0 to 100 (0 no effect, 100 complete control), read-out: Plant response rating, Pigweed
[20] = post-emergence, Postemergence, scale 0 to 100 (0 no effect, 100 complete control), read-out: Ragweed plant response rating
[21] = post-emergence, Postemergence, scale 0 to 100, 0 no effect, 100 complete control, read-out: Plant response rating, Ragweed
[22] = pre-emergence, Preemergence, scale 0 to 100 (0 no effect, 100 complete control), read-out: Plant response rating, Ragweed
[23] = post-emergence, Postemergence, scale 0 to 100 (0 no effect, 100 complete control), read-out: Waterhemp plant response rating
[24] = post-emergence, Postemergence, scale 0 to 100, 0 no effect, 100 complete control, read-out: Plant response rating, Waterhemp
[25] = pre-emergence, Preemergence, scale 0 to 100 (0 no effect, 100 complete control), read-out: Plant response rating, Waterhemp

FC(F)c1cc(-c2ccccc2Oc2ncc(Cl)cn2)on1 [Compound 53, 5-chloro-2-[2-[3-(difluoromethyl)-5-isoxazolyl]phenoxy]pyrimidine]
pest or weed control at 125 g/ha ([1]; 125 g ai/ha, read-out: Plant response rating (scale 0 to 100), Galium): 98%
pest or weed control at 16 g/ha ([1]; 16 g ai/ha, scale 0 to 100 (0 no effect, 100 complete control), read-out: Plant response rating, Galium): 85%
pest or weed control at 31 g/ha ([1]; 31 g ai/ha, scale 0 to 100 (0 no effect, 100 complete control), read-out: Plant response rating, Galium): 95%
pest or weed control at 62 g/ha ([1]; 62 g ai/ha, scale 0 to 100 (0 no effect, 100 complete control), read-out: Plant response rating, Galium): 100%
pest or weed control at 16 g/ha [2, 8]: 40%
pest or weed control at 31 g/ha [2, 8]: 20%
pest or weed control at 62 g/ha [2, 9]: 25%
pest or weed control at 125 g/ha [2, 9]: 30%
pest or weed control at 125 g/ha ([2]; pre-emergence, Preemergence, read-out: Plant response rating (scale 0 to 100), Foxtail, Giant): 100%
pest or weed control at 16 g/ha [2, 10]: 10%
pest or weed control at 31 g/ha [2, 10]: 85%
pest or weed control at 62 g/ha [2, 10]: 98%
pest or weed control at 16 g/ha [3, 11]: 70%
pest or weed control at 31 g/ha [3, 11]: 80%
pest or weed control at 62 g/ha [3, 12]: 100%
pest or weed control at 125 g/ha [3, 12]: 100%
pest or weed control at 125 g/ha ([3]; pre-emergence, Preemergence, read-out: Plant response rating (scale 0 to 100), Lambsquarters): 100%
pest or weed control at 16 g/ha [3, 13]: 100%
pest or weed control at 31 g/ha [3, 13]: 100%
pest or weed control at 62 g/ha [3, 13]: 100%
pest or weed control at 16 g/ha [4, 14]: 50%
pest or weed control at 31 g/ha [4, 14]: 80%
pest or weed control at 62 g/ha [4, 15]: 85%
pest or weed control at 125 g/ha [4, 15]: 55%
pest or weed control at 125 g/ha ([4]; pre-emergence, Preemergence, read-out: Plant response rating (scale 0 to 100), Morningglory): 40%
pest or weed control at 16 g/ha [4, 16]: 0%
pest or weed control at 31 g/ha [4, 16]: 0%
pest or weed control at 62 g/ha [4, 16]: 45%
pest or weed control at 16 g/ha [5, 17]: 85%
pest or weed control at 31 g/ha [5, 17]: 90%
pest or weed control at 62 g/ha [5, 18]: 90%
pest or weed control at 125 g/ha [5, 18]: 100%
pest or weed control at 125 g/ha ([5]; pre-emergence, Preemergence, read-out: Plant response rating (scale 0 to 100), Pigweed): 100%
pest or weed control at 16 g/ha [5, 19]: 95%
pest or weed control at 31 g/ha [5, 19]: 100%
pest or weed control at 62 g/ha [5, 19]: 100%
pest or weed control at 16 g/ha [6, 20]: 50%
pest or weed control at 31 g/ha [6, 20]: 50%
pest or weed control at 62 g/ha [6, 21]: 55%
pest or weed control at 125 g/ha [6, 21]: 55%
pest or weed control at 125 g/ha ([6]; pre-emergence, Preemergence, read-out: Plant response rating (scale 0 to 100), Ragweed): 85%
pest or weed control at 16 g/ha [6, 22]: 0%
pest or weed control at 31 g/ha [6, 22]: 40%
pest or weed control at 62 g/ha [6, 22]: 55%
pest or weed control at 16 g/ha [7, 23]: 80%
pest or weed control at 31 g/ha [7, 23]: 90%
pest or weed control at 62 g/ha [7, 24]: 90%
pest or weed control at 125 g/ha [7, 24]: 100%
pest or weed control at 125 g/ha ([7]; pre-emergence, Preemergence, read-out: Plant response rating (scale 0 to 100), Waterhemp): 100%
pest or weed control at 16 g/ha [7, 25]: 100%
pest or weed control at 31 g/ha [7, 25]: 100%
pest or weed control at 62 g/ha [7, 25]: 100%
